Read-outs that look alike come from different tables or passages of the source.
Key:
Assay type in all cases: biochemical
Human recombinant LOXL3 = target: T1, Human recombinant LOXL3 (Homo sapiens, UniProt P58215); assay: LOXL3 inhibition, Amplex Red oxidation assay
T1 sequence (P58215 26-753): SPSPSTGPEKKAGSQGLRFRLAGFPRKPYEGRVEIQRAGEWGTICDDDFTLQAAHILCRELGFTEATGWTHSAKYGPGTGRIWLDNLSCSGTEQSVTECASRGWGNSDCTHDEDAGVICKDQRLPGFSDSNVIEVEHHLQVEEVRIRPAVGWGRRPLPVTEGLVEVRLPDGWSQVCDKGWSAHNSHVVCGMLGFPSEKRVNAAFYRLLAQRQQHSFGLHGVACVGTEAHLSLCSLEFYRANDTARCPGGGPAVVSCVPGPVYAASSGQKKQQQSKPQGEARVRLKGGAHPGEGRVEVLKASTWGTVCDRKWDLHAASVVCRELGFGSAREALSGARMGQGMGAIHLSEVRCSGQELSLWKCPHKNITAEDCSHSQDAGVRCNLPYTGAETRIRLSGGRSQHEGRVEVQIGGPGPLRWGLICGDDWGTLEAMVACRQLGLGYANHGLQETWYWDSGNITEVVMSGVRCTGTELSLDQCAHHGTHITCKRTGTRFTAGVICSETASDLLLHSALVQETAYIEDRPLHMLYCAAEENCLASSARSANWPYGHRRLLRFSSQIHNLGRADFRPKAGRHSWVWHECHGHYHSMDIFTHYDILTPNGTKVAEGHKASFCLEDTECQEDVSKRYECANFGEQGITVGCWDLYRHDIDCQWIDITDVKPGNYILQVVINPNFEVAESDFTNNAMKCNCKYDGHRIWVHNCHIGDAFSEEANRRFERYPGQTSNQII
Experimental: (§1) LOX and LOXL protein family members can be acquired as recombinant active proteins from commercial sources, or extracted from animal tissues like bovine aorta, tendons, pig skin; or prepared from cell cultures. […] The assay was developed using either 384 or 96 well format. Briefly, in a standard black, clear bottom 384 well plate assay 25 μL of a dilution of any of the isoenzymes and orthologues in 1.2 M urea, 50 mM sodium borate buffer (pH 8.2) were added into each well in the presence of 1 μM mofegiline and 0.5 mM pargyline (to inhibit SSAO and MAO-B and MAO-A, respectively; not necessary if the enzyme is from a recombinant or purified form). Test compounds were dissolved in DMSO and tested in a Concentration Response Curve (CRC) with 11 data points, typically in the micromolar or nanomolar range after incubation with the enzyme for 30 min at 37° C. 25 μL of a reaction mixture containing twice the KM concentration of putrescine (Sigma Aldrich, e.g. 20 mM for LOX and LOXL1 or 10 mM for LOXL2 and 4 mM for LOXL3 and LOXL4), 120 μM Amplex Red (Sigma Aldrich) and 1.5 U/mL horseradish peroxidase (Sigma Aldrich) prepared in 1.2 M urea, 50 mM sodium borate buffer (pH 8.2) were then added to the corresponding wells. The above volumes were doubled in the case of 96 wells plate. The fluorescence (RFU) was read every 2.5 min for 30 min at […] 37° C., excitation 565 nm and emission 590 (Optima; BMG labtech). The slope of the kinetics for each well was calculated using MARS data analysis software (BMG labtech) and this value was used to deduce the IC50 value (Dotmatics). The ability of the inventive compounds to inhibit the amine oxidase activity of LOX and other family members is shown in Table 4.

Human recombinant LOXL2 = target: T2, Human recombinant LOXL2 (Homo sapiens, UniProt Q9Y4K0); assay: LOXL2 inhibition, Amplex Red oxidation assay
T2 sequence (Q9Y4K0 26-774): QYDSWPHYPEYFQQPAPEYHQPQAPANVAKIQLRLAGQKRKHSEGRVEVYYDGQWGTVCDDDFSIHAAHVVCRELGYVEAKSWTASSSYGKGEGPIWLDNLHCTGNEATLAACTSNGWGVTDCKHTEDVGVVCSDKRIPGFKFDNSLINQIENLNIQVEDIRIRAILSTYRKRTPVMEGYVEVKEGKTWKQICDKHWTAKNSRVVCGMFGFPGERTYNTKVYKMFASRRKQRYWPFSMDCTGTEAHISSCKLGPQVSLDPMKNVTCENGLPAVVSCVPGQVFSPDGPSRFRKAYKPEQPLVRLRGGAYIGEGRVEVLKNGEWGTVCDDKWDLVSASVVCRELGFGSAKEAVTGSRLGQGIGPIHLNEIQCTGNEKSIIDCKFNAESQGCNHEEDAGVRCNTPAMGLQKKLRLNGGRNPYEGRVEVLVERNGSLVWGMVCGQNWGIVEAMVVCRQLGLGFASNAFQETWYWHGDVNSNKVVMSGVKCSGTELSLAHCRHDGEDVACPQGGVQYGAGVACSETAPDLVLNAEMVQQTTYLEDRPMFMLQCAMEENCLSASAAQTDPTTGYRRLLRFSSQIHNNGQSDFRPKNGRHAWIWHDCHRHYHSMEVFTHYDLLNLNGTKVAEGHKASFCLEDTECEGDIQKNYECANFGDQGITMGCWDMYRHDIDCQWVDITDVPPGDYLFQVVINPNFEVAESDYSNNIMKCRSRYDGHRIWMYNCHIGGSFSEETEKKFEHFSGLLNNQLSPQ
Experimental: as §1

Human recombinant LOXL1 = target: T3, Human recombinant LOXL1 (Homo sapiens, UniProt Q08397); assay: LOXL1 inhibition, Amplex Red oxidation assay
T3 sequence (Q08397 96-574): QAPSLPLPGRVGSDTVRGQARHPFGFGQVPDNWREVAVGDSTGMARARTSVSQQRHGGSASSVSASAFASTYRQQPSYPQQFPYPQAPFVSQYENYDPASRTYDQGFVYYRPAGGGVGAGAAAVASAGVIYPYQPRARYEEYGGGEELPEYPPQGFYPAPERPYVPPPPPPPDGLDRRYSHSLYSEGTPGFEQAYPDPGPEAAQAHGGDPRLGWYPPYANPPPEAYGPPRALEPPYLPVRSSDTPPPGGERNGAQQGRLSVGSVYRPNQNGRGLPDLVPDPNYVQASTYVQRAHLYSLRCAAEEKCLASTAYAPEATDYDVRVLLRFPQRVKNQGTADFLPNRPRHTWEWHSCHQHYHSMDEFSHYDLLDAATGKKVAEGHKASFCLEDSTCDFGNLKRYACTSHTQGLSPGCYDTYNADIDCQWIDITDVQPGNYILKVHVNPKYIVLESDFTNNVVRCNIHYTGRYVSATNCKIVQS
Experimental: as §1

[1] = incubation with enzyme 30 min at 37° C, read-out: Human recombinant LOXL3 Activity IC50
[2] = incubation with enzyme 30 min at 37° C, read-out: Human recombinant LOXL2 Activity IC50
[3] = incubation with enzyme 30 min at 37° C, read-out: Human recombinant LOXL1 Activity IC50

| SMILES | IC50 (Human recombinant LOXL3; [1]) [nM] | IC50 (Human recombinant LOXL2; [2]) [nM] | IC50 (Human recombinant LOXL1; [3]) [µM] | IC50 (Human recombinant LOXL3) [nM] | IC50 (Human recombinant LOXL2) [nM] | IC50 (Human recombinant LOXL1) [µM] |
| --- | --- | --- | --- | --- | --- | --- |
| CNc1ccccc1S(=O)(=O)C(F)(F)/C(F)=C/CN [Compound 4, (Z)-2-((4-amino-1,1,2-trifluorobut-2-en-yl)sulfony1)-N-methylaniline] | 7400 | 1000 | 4.8 |  |  |  |
| COc1cccc(S(=O)(=O)C(F)(F)/C(F)=C/CN)c1 [Compound 12, (Z)-3,4,4-trifluoro-4-((3-methoxyphenyl)sulfonyl)but-2-en-1-amine] | 2700 | 600 | 7.4 |  |  |  |
| N#CCCN [BAPN, β-aminopropionitrile, reference compound] | 500 | 400 | 2.5 |  |  |  |
| NC/C=C(\F)C(F)(F)S(=O)(=O)c1ccccc1 [Compound 1, (Z)-3,4,4-trifluoro-4-(phenylsulfonyl)but-2-en-1-amine] |  |  |  | 1500 | 400 | 3.4 |
| NC/C=C(\F)C(F)(F)[S+]([O-])c1ccccc1 (stereo not shown) [Compound 9, (Z)-3,4,4-trifluoro-4-(phenylsulfinyl)but-2-en-1-amine] | 5200 | 1400 | 8.7 |  |  |  |
| NC/C=C(\F)C(F)(F)S(=O)(=O)c1cccc2cccnc12 [Compound 2, (Z)-3,4,4-trifluoro-4-(quinolin-8-ylsulfonyl)but-2-en-1-amine] | 16400 | 1800 | 13.4 |  |  |  |

More lines, main results first:

| IC50 (Human recombinant LOXL3; [1]) [nM] | IC50 (Human recombinant LOXL2; [2]) [nM] | IC50 (Human recombinant LOXL1; [3]) [µM] | SMILES | IC50 (Human recombinant LOXL3) [nM] | IC50 (Human recombinant LOXL2) [nM] | IC50 (Human recombinant LOXL1) [µM] |
| --- | --- | --- | --- | --- | --- | --- |
| 1800 | 500 | 5.1 | Cc1ccc(S(=O)(=O)C(F)(F)/C(F)=C/CN)cc1 [Compound 6, (Z)-3,4,4-trifluoro-4-tosylbut-2-en-1-amine] |  |  |  |
| 1000 | 300 | 3.1 | NC/C=C(\F)C(F)(F)S(=O)(=O)Cc1ccccc1 [Compound 8, (Z)-4-(benzylsulfony1)-3,4,4-trifluorobut-2-en-1-amine] |  |  |  |
| 1500 | 100 | 2 | CS(=O)(=O)c1ccc(COc2ccccc2S(=O)(=O)C(F)(F)/C(F)=C/CN)cc1 [Compound 10, (Z)-3,4,4-trifluoro-4-((2-((4-(methylsulfonyl)benzyl)oxy)phenyl)sulfonyl) but-2-en-1-amine] |  |  |  |
|  | 500 |  | Cc1ccccc1S(=O)(=O)C(F)(F)/C(F)=C/CN [Compound 5, (Z)-3,4,4-trifluoro-4-(o-tolylsulfonyl)but-2-en-1-amine] |  |  |  |
| 800 | 400 | 4.6 | CS(=O)(=O)c1cccc(CS(=O)(=O)C(F)(F)/C(F)=C/CN)c1 [Compound 17, (Z)-3,4,4-trifluoro-4-((3-(methylsulfonyl)benzyl)sulfonyl)but-2-en-1-amine] |  |  |  |
| 1300 | 500 | 4.3 | NC/C=C(\F)C(F)(F)S(=O)(=O)C1CCCC1 [Compound 19, (Z)-4-(cyclopentylsulfony1)-3,4,4-trifluorobut-2-en-1-amine] |  |  |  |
| 1200 | 300 | 7 | NC/C=C(\F)C(F)(F)S(=O)(=O)c1cccs1 [Compound 14, (Z)-3,4,4-trifluoro-4-(thiophen-2-ylsulfonyl)but-2-en-1-amine] |  |  |  |

Source: US20220251036A1, “DIFLUOROHALOALLYLAMINE SULFONE DERIVATIVE INHIBITORS OF LYSYL OXIDASES, METHODS OF PREPARATION, AND USES THEREOF” (PHARMAXIS LTD., priority 2019, published 2022)
